Here are results for seven molecules from patent US7576188B2, “Antitumoral treatments” (Pharma Mar, S.A.U., priority 2004, dated 2009).

Like-named read-outs stand apart in the source and are kept apart here. Numbered stars: 1 amine (or outer) side, 2 acyl side, 3 side chain; on linkers, the order of the positions; unused ones are H or OH. Bridge positions count the residues as written; N and C are the ends. Square brackets hold non-standard residues; d marks the D form. Peptide text beside a SMILES is read from it. * marks the point of attachment. X1 = CC[C@H](C)[C@@H](N[*:1])[C@@H](O)CC(=O)O[C@H](C(=O)[C@H](C)C(=O)[*:2])C(C)C; NMeY = CN[C@@H](Cc1ccc(O)cc1)C(=O)O; dNMeL = CN[C@H](CC(C)C)C(=O)O; Pyruvoyl = CC(=O)C(=O)*

Data set [1] has as its system CCRF-CEM cells. The experiment in a line: XTT/MTS cytotoxicity, single agents and combinations, CCRF-CEM. To be noted: for Viability (% of control): single agent at its IC50 dose. (Tetrazolium assays rely on reduction of a dye to a coloured formazan, in cell work by metabolically active cells.)
Method: (§3) Cell viability is measured by XTT assay in an automated plate reader.
(§4) All the citotoxicity studies were performed by using XTT or MTS.
(§5) Data was obtained after cell incubation for 96 hours and using XTT asay. The results represent means of three different experiments.
The subject of data set [2] is K562, CEM and SKI-DLCL cell lines. The experiment in a line: Combination of IC20 aplidine with a dose range of additional drug (Table 1). The class given is cell-based. As for the experimental part:
Drug combination studies were carried out on established cell lines rather than primary cells. We studied three cell lines, viz. K562 as a model for acute myeloid leukemia, CEM representing acute lymphocytic leukemia and SKI-DLCL representing diffuse large cell lymphoma. Combination studies with IC20 and IC 50 dose of aplidine with a dose range of methotrexate, cytosine arabinoside and doxorubicin were tested to determine if aplidine could potentiate the effect of these drugs.

In data set [3] the test system is preB-ALL (DM4) cells. The experiment in a line: Viability of primary preB-ALL (DM4) cells cultured with aplidine. The class given is cell-based, human. How it is done:
(§1) Aplidine was tested against various primary cells from patients with hematologic malignancies. The cells used were: • fresh cells obtained from six chronic lymphocytic leukemia patients • primary cell from a patient with preB-ALL (DM4)
(§2) Patient samples were obtained with prior consent and CLL cells were isolated by density gradient centrifugation over histopaque. The media used was RPMI supplemented with 10% autologous serum and L-glutamine. The cultures were incubated with 10 nM aplidine and cell viability was measured days 3, 7,11 and 18 and compared with viability of untreated cells and STI 571 (0.5 mM).

Data set [4] in a line: Determination of maximum tolerated dose in SCID mice. The class given is in vivo, C.B.-17 scid/scid (SCID) mice. To be noted: total dose given in five daily doses. The text has this:
We have used an in vivo model of human lymphoma in SCID mice for this purpose. Specifically, we have used CCRF-CEMS cells and CB.17 scid/scid mice. We have experience with this model and have evaluated drug treatments using this xenograft (Lacerda J. F. et al. Blood 85 (10): 2675-2679 (1995)).

For data set [5], the system named is SKI-DLCL cells. Put plainly: cells. To be noted: 96 h.
Method: as §3, §4, §5
The subject of data set [6] is ALL-MOLT4 cells. As to conditions: cited from earlier work.
The conditions of data set [7]: solubilised, heat and light stress; cited from earlier work.
The subject of data set [8] is chronic lymphocytic leukemia (CLL) cells. Put plainly: Viability of fresh primary CLL cells cultured with aplidine. The class given is cell-based, human. How it is done: as §1, §2
Data set [9] has as its system SKI-DLCL cells. To be noted: for IC50: 96 hours.
Method: as §3, §4, §5
For data set [10] the following is noted: at maximum tolerated doses, clinical Phase I; except for mild lymphopenia; cited from earlier work.
Data set [11] concerns K562 cells. The experiment in a line: XTT/MTS cytotoxicity, single agents and combinations, K562. To be noted: for Viability (% of control): K562, single agent at its IC50 dose.
Method: as §3
(§6) Chou-Talalay analysis was used to analyze the drug combinations.
(§7) All the citotoxicity studies were performed by using XTT or MTS. We first determined the IC50 dose of these drugs in SKI-DLCL, CCRF-CEM and K562 cell lines. We investigated drug combinations using IC50(Aplidine):IC50(DrugX) fixed ratio.
In data set [12] the test system is K562 cells.
Method: as §3, §6, §7
The subject of data set [13] is AML and ALL samples from pediatric patients. To be noted: de novo or relapsed ALL and AML; cited from earlier work.
The subject of data set [14] is CEM-T leukemic cells. The experiment in a line: In vivo antitumor effect in SCID mice xenograft model. To be noted: AraC alone at 50 mg/kg, intra-peritoneally. As for the experimental part: SCID mice were inoculated subcutaneously in the right flank with 10^7 CEM-T leukemic cells. They were observed twice weekly for tumor formation at the site of inoculation. After establishment of palpable tumor, alidine was injected as single agent and in combination with several doses of AraC to determine the antitumor effect. Mice were randomized to receive alidine alone at doses of 0.75 mg/kg and 1 mg/kg, AraC alone at 50 mg/kg, or combination of Aplidine and AraC for all dose combinations. […] All drugs were administered intra-peritoneally, and tumor size was compared to a control group of mice not receiving any treatment and for combination groups, compared to tumor sizes with single agent treatment.

[15] abbreviates: read-out: IC50 dose, single agent, 96 hours.
The mark [16] stands for this setting: Homo sapiens, K562, No Aplidine.
The mark [17] stands for this setting: Homo sapiens, K562, with IC20 Aplidine (0.5 nM).
The mark [18] stands for this setting: read-out: IC50 dose, single agent, SKI-DLCL.
The mark [19] stands for this setting: Homo sapiens, K562, 96 h, read-out: IC50 dose, single agent, K562, 96 hours.
[20] abbreviates: SKI-DLCL, single agent at its IC50 dose.

A word on the IC50: it is the midpoint of a concentration-inhibition curve. As for `CN(Cc1cnc2nc(N)nc(N)c2n1)c1ccc(C(=O)N[C@@H](CCC(=O)O)C(=O)O)cc1` [MTX, methotrexate], the values for the IC50 in data set [1] (setting [15]), in [2] (setting [16]) and in [2] (setting [17]) were 10 nM, 5 nM and 0.5 nM, respectively. The “Viability (% of control)” value in [1] is on record as 50 % of control.

With `CC[C@H](C)[C@H]1NC(=O)[C@@H](NC(=O)[C@@H](CC(C)C)N(C)C(=O)[C@@H]2CCCN2C(=O)C(C)=O)[C@@H](C)OC(=O)[C@H](Cc2ccc(OC)cc2)N(C)C(=O)[C@@H]2CCCN2C(=O)[C@H](CC(C)C)NC(=O)[C@@H](C)C(=O)[C@H](C(C)C)OC(=O)C[C@@H]1O` [aplidine, Dehydrodidemnin B] (Pyruvoyl-P[dNMeL]T[X1]LP[NMeY](Me); ester 3-C), the “inhibition of preB-ALL cells in culture” value in data set [3] (FIG. 2) was “potent inhibitor”. The concentration for half-maximal inhibition (IC50) in data set [3] (Homo sapiens, 72 h, DM4 line, 3 day exposure) was 10 nM; in [5] (read-out: IC50 dose, single agent, SKI-DLCL, 96 hours), 0.5 to 1 nM; in [1] (setting [15]), 0.5 nM; in data set [8] (Homo sapiens, CLL cell, 264 h, primary CLL samples, 11 day exposure) it was 10 nM; in data set [9] (setting [18]), 0.5 nM; in data set [11] (setting [19]), 0.5 to 1 nM. The IC50 in data set [11] (read-out: IC50 dose, single agent, K562, 96 hours, listed as APL) was determined as 1 nM. For the same molecule, in data set [4], the “maximum dose that can be tolerated (MTD)” value was found to be 1 mg/kg/week. Also, in data set [6], the VEGF secretion entry is “block VEGF secretion”. For the same molecule, the “degradation under stress testing” value in data set [7] is “substantial degradation”. Also, the “growth of CLL cells in culture” value in data set [8] (FIG. 1) was “inhibits growth”. Also, the “Viability (% of control)” value in [9] and in data set [12] was 50 % of control in each case. Besides, in [10], the myelotoxicity result is on record as “not myelotoxic”. Also, the “concentration with in vitro cytotoxic activity” value in data set [13] is recorded as 5 nM.

Turning to `O=C1c2c(O)ccc(O)c2C(=O)c2c(NCCNCCO)ccc(NCCNCCO)c21` [Mitox, mitoxantrone], the IC50 in data set [5] (read-out: IC50 dose) stood at 5 nM; in data set [1] (setting [15]), 30 nM; in data set [11] (setting [19]), 7.5 nM. For the same molecule, the “Viability (% of control)” value was 56 % of control in data set [1], 50 % of control in data set [9] (setting [20]) and 50.7 % of control in data set [11].

On to `CC[C@]1(O)C[C@@H]2CN(CCc3c([nH]c4ccccc34)[C@@](C(=O)OC)(c3cc4c(cc3OC)N(C)[C@H]3[C@@](O)(C(=O)OC)[C@H](OC(C)=O)[C@]5(CC)C=CCN6CC[C@]43[C@@H]65)C2)C1` [Vinb, vinblastine], for which the IC50 in data set [5] (read-out: IC50 dose) came out at 4 nM. The “Viability (% of control)” value in data set [9] (setting [20]) is listed as 50 % of control.

In the case of `COc1cccc2c1C(=O)c1c(O)c3c(c(O)c1C2=O)C[C@@](O)(C(=O)CO)C[C@@H]3O[C@H]1C[C@H](N)[C@H](O)[C@H](C)O1` [Dox, doxorubicin], the IC50 in data set [5] (read-out: IC50 dose) was 5 nM; in data set [2] (setting [16]) it was 18 nM; in [2] (setting [17]), 1 nM. For the same molecule, the “Viability (% of control)” value in data set [9] (setting [20]) is listed as 50 % of control.

Regarding `Nc1ccn([C@@H]2O[C@H](CO)[C@@H](O)[C@@H]2O)c(=O)n1` [AraC, cytosine arabinoside], in data set [14], the “in vivo antitumor effect (tumor growth)” value is recorded as “tumor growth was inhibited but no tumor regression occurred”. Besides, the IC50 in data set [1] (read-out: IC50 dose of AraC, in combination with IC20 (APL), 96 hours, XTT) was 0.8 nM; in data set [1] (setting [15]), 10 nM; in data set [2] (No Aplidine), 30 nM; in data set [2] (with IC20 Aplidine (0.5 nM)) it was 6 nM; in data set [9] (read-out: IC50 dose of AraC, SKI-DLCL, in combination with IC20 (APL), XTT), 1.6 nM; in [9] (setting [18]), 30 nM. Moreover, the IC50 in data set [11] (read-out: IC50 dose, single agent, K562, 96 hours) came to 30 nM. For the same molecule, the figures for the “Viability (% of control)” value in data set [1], in [9] (setting [20]) and in data set [11] were 56.4 % of control, 50 % of control and 50 % of control, respectively.

For `C[C@H]1C[C@@H]2[C@H]([C@@H](O)C[C@@]3(C)[C@H]2CC[C@]3(O)C(=O)CO)[C@@]2(C)C=CC(=O)C=C12` [Metpred, methylprednisolone], the IC50 in data set [5] (read-out: IC50 dose) worked out at 160 nM. The “Viability (% of control)” value in data set [9] (setting [20]) is listed as 51 % of control.
